The test system of experiment [1] is fibrogenic livers in BDL model. Nature of the experiment: Liver uptake in BDL vs sham rats at 15 days post-op, vs negative control. Type of experiment: in vivo, rat. Particulars: one hour post-injection. How it is done: On the appropriate day post surgery BDL and sham animals were removed and put under isoflurane anaesthesia, then each animal was injected with 0.3 ml intravenously (i.v.) via tail vein (˜3MBq). At the appropriate time point post-injection of the test item, each animal was re-anaesthetised with isoflurane, sacrificed by cervical dislocation weighed and the weight recorded via a barcode scanning system. Each animal was dissected and the following organs and tissues were removed and counted using BASIL counter protocol 40 or manual counting:
The BDL and sham animal models were set up as described in Example 3. At 15 days post-operatively, one of Compound 3, Compound 8 or a negative control was administered to each animal and liver uptake assessed as described in Example 3.

Another experiment deals with EA-Hy926 membranes. The experiment in a line: Competitive binding assay with 125I-echistatin on EA-Hy926 membranes. Also noted: species or system human. How it is done:
The inhibition constant of Compound 6 was measured using a previously-described membrane binding assay (Indrevoll et al, Bioorg & Med Chem Lett, 2006, 16, 6190-6193).
In brief, membranes from the human endothelial adenocarcinoma cell line EA-Hy926 were prepared and the Kd calculated for the purified membrane fraction. A competitive binding assay was then established to measure inhibition constants for cold Compound 6. ^125I-echistatin was used as the labelled ligand and cold echistatin as a reference standard.
A total of sixteen dilutions of cold test compound (either cold echistatin or cold Compound 6) were prepared and mixed with a combination of ^125I-echistatin and membrane prior to incubation for 1 hour at 37° C. Following several washes, the bound material was harvested on a filter using a Skatron micro harvester. The filterspots were finally excised and counted in a Packard γ-counter.
The inhibition constants for Compound 3 and Compound 8 were determined using the method described in Example 1. FIG. 3 illustrates binding of ^125I-echistatin versus cold Compound 3, Compound 8 and echistatin on EA-Hy926 membranes.

Experiment [2] concerns Activated human hepatic stellate cells, LX-2. The experiment in a line: Binding to activated human hepatic stellate cells LX-2. How it is done: Activated human hepatic stellate cells, LX-2 (provided by Prof. Scott L. Friedman, Mount Sinai School of Medicine, New York), were cultured in 12-well plates (Nunc) to confluence in Dulbeccos Modified Eagels Medium containing 10% FBS, streptomycin and glutamine. The cells were washed twice in a cold buffer containing 50 mM Tris, pH 7.4, 150 mM NaCl, 5 mM MnCl2, 1 mM CaCl2 and 0.01% BSA. The cells were further incubated in the buffer containing a trace amount of labelled compound (either 0.1 nM ^125I Compound 6 or 0.1 nM ^125I-echistatin) together with various concentrations of cold compound for 60 min at 4° C. with shaking. Following incubation, the unbound material was removed by washing the cells 3 times with cold buffer. The cells were detached from the wells by adding 0.1M NaOH and transferred to a tube to be counted in a gamma-counter (Packard). FIG. 2 illustrates the observed activity values.

SMILES strings stand for the structures. Numbered stars: 1 amine (or outer) side, 2 acyl side, 3 side chain; on linkers, the order of the positions; unused ones are H or OH. Bridge positions count the residues as written; N and C are the ends. Side chains are listed from the residue outwards. Peptide text beside a SMILES is read from it. * marks the point of attachment. X3 = CC[N+]1=C(/C=C/C=C/C=C2/N(CCCCCC(=O)*)c3ccc4c(S(=O)(=O)O)cc(S(=O)(=O)O)cc4c3C2(C)C)C(C)(C)c2c1ccc1c(S(=O)(=O)O)cc(S(=O)(=O)O)cc21; X4 = CC1=[N+]([O-])[Tc]23(=[O])(=[O])[N](CCC(CCN*)CC[N]2C(C)(C)C(C)=[N+]3[O-])C1(C)C; Glutaryl = O=C(CCCC(=O)[*:2])[*:1]

Take `CC[N+]1=C(/C=C/C=C/C=C2/N(CCCCCC(=O)NCCCC[C@@H]3NC(=O)CSC[C@@H](C(=O)NCC(=O)N[C@@H](CCCCNC(=O)CCCC(=O)NCCC4CC[N]5C(C)(C)C(C)=[N+]([O-])[Tc]56(=[O])(=[O])[N](CC4)C(C)(C)C(C)=[N+]6[O-])C(N)=O)NC(=O)[C@H](CCCNC(=N)N)NC(=O)[C@@H]4CSSC[C@H](NC3=O)C(=O)NCC(=O)N[C@@H](CC(=O)O)C(=O)N[C@@H](Cc3ccccc3)C(=O)N4)c3ccc4c(S(=O)(=O)O)cc(S(=O)(=O)O)cc4c3C2(C)C)C(C)(C)c2c1ccc1c(S(=O)(=O)O)cc(S(=O)(=O)O)cc21` (some centres unmarked) [negative control, reference compound] ({CH2CO}-K(X3)CGDFCRCGK([Glutaryl-X4])-NH2; disulfide 2-6; thioether N-8): in experiment [1], the “Liver retention/uptake in BDL compared to sham animals (in words)” value is reported as “no significant difference”.
With `N=C(N)NCCC[C@@H]1NC(=O)[C@@H]2CSSC[C@H](NC(=O)[C@H](CC(=O)O)NC(=O)CNC1=O)C(=O)N[C@@H](Cc1ccccc1)C(=O)N[C@H](C(=O)NCCOCCOCCOCCNC(=O)COCC(N)=O)CSCC(=O)N[C@@H](CCCCNC(=O)c1cccc([123I])c1)C(=O)N2` [Compound 6], the “Binding to EA-Hy926 membranes (in words)” value in the experiment on EA-Hy926 membranes is “binding specifically”. Besides, at EA-Hy926 membranes (cold compound vs 125I-echistatin, 1 hour at 37° C., read-out: Ki in the EA-Hy926 membrane assay), the Ki (commonly the equilibrium dissociation constant of an inhibitor or competing ligand from its target) was roughly 10 nM. The “Binding to activated human hepatic stellate cells (in words)” value in experiment [2] is “binding specifically”. The EC50 (in general, the midpoint of the concentration-response curve) in experiment [2] (0.1 nM 125I labelled compound plus cold compound, 60 min at 4° C., read-out: EC50 in the LX-2 cell assay) is roughly 1 nM.

Source of the values: patent US8834843B2, “Imaging method” (GE Healthcare Limited, priority 2007, dated 2014).
